Test results reported in patent US11180474B2 (BRISTOL-MYERS SQUIBB COMPANY, priority 2016, dated 2021).

Target: T1, human TLR7 (Homo sapiens, UniProt Q9NYK1)
T1 construct: host or cells: HEK-Blue cells
T1 sequence (Q9NYK1 27-1049): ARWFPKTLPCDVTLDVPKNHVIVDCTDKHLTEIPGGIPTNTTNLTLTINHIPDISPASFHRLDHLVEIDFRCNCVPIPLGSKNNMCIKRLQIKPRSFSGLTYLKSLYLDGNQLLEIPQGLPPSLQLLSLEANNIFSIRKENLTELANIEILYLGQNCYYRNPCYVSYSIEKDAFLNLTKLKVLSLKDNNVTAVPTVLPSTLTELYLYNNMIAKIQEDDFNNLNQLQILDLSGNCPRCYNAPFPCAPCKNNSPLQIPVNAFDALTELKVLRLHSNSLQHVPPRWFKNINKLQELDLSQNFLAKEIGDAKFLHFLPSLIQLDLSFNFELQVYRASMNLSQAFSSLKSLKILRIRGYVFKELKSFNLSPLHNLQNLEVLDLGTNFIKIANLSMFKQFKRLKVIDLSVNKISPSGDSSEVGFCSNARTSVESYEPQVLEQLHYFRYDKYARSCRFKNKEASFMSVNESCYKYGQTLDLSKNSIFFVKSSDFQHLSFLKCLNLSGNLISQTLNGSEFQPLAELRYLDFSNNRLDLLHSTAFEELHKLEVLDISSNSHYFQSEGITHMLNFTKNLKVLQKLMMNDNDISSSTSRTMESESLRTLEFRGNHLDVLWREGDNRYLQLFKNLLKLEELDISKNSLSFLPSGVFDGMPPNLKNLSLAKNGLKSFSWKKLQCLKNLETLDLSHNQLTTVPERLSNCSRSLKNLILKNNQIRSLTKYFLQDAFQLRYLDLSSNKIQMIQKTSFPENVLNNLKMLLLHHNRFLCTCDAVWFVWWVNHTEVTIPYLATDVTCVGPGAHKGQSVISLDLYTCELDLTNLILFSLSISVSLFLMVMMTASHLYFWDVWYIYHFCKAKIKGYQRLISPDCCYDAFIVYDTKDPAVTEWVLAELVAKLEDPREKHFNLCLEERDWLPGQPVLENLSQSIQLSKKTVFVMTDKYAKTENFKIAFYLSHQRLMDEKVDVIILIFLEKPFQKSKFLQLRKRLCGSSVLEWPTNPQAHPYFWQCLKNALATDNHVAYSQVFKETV
Assay: TLR7 inhibition reporter assay (HEK-Blue cells, SEAP reporter, gardiquimod stimulation)
Format: cell-based
Settings: HEK-Blue cells overexpressing human TLR7, gardiquimod 7.5 μM
How it was run: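 In this cell reporter format, test compounds at 0.05 nM-50 μM final incubate 22 h with seeded cells (TLR7 15000, TLR8 20,000 per well). SEAP read-out by HEK-Blue Detection medium yields % inhibition relative to agonist/DMSO and known-inhibitor wells.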

SMILES	IC50
COc1ccc(-c2[nH]c3ccc(C4CCN(C(=O)Cc5cnccn5)CC4)cc3c2CC(F)(F)F)cc1OC [Example 342, 1-(4-(2-(3,4-dimethoxyphenyl)-3-(2,2,2-trifluoroethyl)-1H-indol-5-yl)piperidin-1-yl)-2-(pyrazin-2-yl)ethan-1-one]	240 nM
COc1ccc(-c2[nH]c3ccc(C4CCN(C(=O)CCC(=O)N(C)C)CC4)cc3c2CC(F)(F)F)cc1OC [Example 346, 4-(4-(2-(3,4-dimethoxyphenyl)-3-(2,2,2-trifluoroethyl)-1H-indol-5-yl)piperidin-1-yl)-N,N-dimethyl-4-oxobutanamide]	213 nM
COc1ccc(-c2[nH]c3ccc(C4CCN(CC(=O)N5CCC(N(C)C)CC5)CC4)cc3c2CC(F)(F)F)cc1OC [Example 364, 2-(4-(2-(3,4-dimethoxyphenyl)-3-(2,2,2-trifluoroethyl)-1H-indol-5-yl)piperidin-1-yl)-1-(4-(dimethylamino)piperidin-1-yl)ethan-1-one]	23 nM
CCN(CC)C(=O)C1CCCN(CC(=O)N2CCC(c3ccc4[nH]c(-c5ccc(OC)c(OC)c5)c(C)c4c3)CC2)C1 (centres unmarked) [Example 404, 1-(2-(4-(2-(3,4-dimethoxyphenyl)-3-methyl-1H-indol-5-yl)piperidin-1-yl)-2-oxoethyl)-N,N-diethylpiperidine-3-carboxamide]	3150 nM
COc1ccc(-c2[nH]c3ccc(C4CCNCC4F)cc3c2C(C)C)cc1OC (racemic) [Example 320, 2-(3,4-dimethoxyphenyl)-5-(3-fluoropiperidin-4-yl)-3-isopropyl-1H-indole]	71 nM
COc1ccc(-c2[nH]c3ccc(C4CCN(CC(=O)NCCCN5CCCC5=O)CC4)cc3c2CC(F)(F)F)cc1OC [Example 376, 2-(4-(2-(3,4-dimethoxyphenyl)-3-(2,2,2-trifluoroethyl)-1H-indol-5-yl)piperidin-1-yl)-N-(3-(2-oxopyrrolidin-1-yl)propyl)acetamide]	178 nM
COc1ccc(-c2[nH]c3ccc(C4CCN(CC(=O)NCCCn5ccnc5)CC4)cc3c2CC(F)(F)F)cc1OC [Example 383, N-(3-(1H-imidazol-1-yl)propyl)-2-(4-(2-(3,4-dimethoxyphenyl)-3-(2,2,2-trifluoroethyl)-1H-indol-5-yl)piperidin-1-yl)acetamide]	13 nM
COc1ccc(-c2[nH]c3ccc(C4CCN(C(=O)C[C@H](C)O)CC4)cc3c2CC(F)(F)F)cc1OC [Example 352, (S)-1-(4-(2-(3,4-dimethoxyphenyl)-3-(2,2,2-trifluoroethyl)-1H-indol-5-yl)piperidin-1-yl)-3-hydroxybutan-1-one]	458 nM
COc1ccc(-c2[nH]c3ccc(C4CCNCC4F)cc3c2C(C)C)cc1OC (single isomer, unassigned) [Example 321, 2-(3,4-dimethoxyphenyl)-5-(3-fluoropiperidin-4-yl)-3-isopropyl-1H-indole]	22 nM
COc1ccc(-c2[nH]c3ccc(C4CCN(CC(=O)N(C)C5CCN(C)C5)CC4)cc3c2CC(F)(F)F)cc1OC (centres unmarked) [Example 370, 2-(4-(2-(3,4-dimethoxyphenyl)-3-(2,2,2-trifluoroethyl)-1H-indol-5-yl)piperidin-1-yl)-N-methyl-N-(1-methylpyrrolidin-3-yl)acetamide]	27 nM
COc1ccc(-c2[nH]c3ccc(C4CCN(C(=O)CN(C)C)CC4)cc3c2C)cc1OC [Example 402, 1-(4-(2-(3,4-dimethoxyphenyl)-3-methyl-1H-indol-5-yl)piperidin-1-yl)-2-(dimethylamino)ethan-1-one]	544 nM
COc1ccc(-c2[nH]c3ccc(C4CCN(C(=O)CCn5ccc6ccccc65)CC4)cc3c2CC(F)(F)F)cc1OC [Example 337, 1-(4-(2-(3,4-dimethoxyphenyl)-3-(2,2,2-trifluoroethyl)-1H-indol-5-yl)piperidin-1-yl)-3-(1H-indol-1-yl)propan-1-one]	3570 nM
COc1ccc(-c2[nH]c3ccc(C4CCN(C(=O)CCc5cccnc5)CC4)cc3c2CC(F)(F)F)cc1OC [Example 348, 1-(4-(2-(3,4-dimethoxyphenyl)-3-(2,2,2-trifluoroethyl)-1H-indol-5-yl)piperidin-1-yl)-3-(pyridin-3-yl) propan-1-one]	413 nM
COc1ccc(-c2[nH]c3ccc(C4CCN(C(=O)CCCNC(C)=O)CC4)cc3c2CC(F)(F)F)cc1OC [Example 343, N-(4-(4-(2-(3,4-dimethoxyphenyl)-3-(2,2,2-trifluoroethyl)-1H-indol-5-yl)piperidin-1-yl)-4-oxobutyl)acetamide]	174 nM
COc1ccc(-c2[nH]c3ccc(C4CCN(C(=O)NCc5ccco5)CC4)cc3c2CC(F)(F)F)cc1OC [Example 358, 4-(2-(3,4-dimethoxyphenyl)-3-(2,2,2-trifluoroethyl)-1H-indol-5-yl)-N-(furan-2-ylmethyl)piperidine-1-carboxamide]	≥ 50000 nM
COc1ccc(-c2[nH]c3ccc(C4CCNC(=O)C4)cc3c2C(C)C)cc1OC (centres unmarked) [Example 326, 4-(2-(3,4-dimethoxyphenyl)-3-isopropyl-1H-indol-5-yl)piperidin-2-one]	127 nM
COc1ccc(-c2[nH]c3ccc(C4CCN(CC(=O)Nc5cc(C(C)(C)C)[nH]n5)CC4)cc3c2CC(F)(F)F)cc1OC [Example 387, N-(5-(tert-butyl)-1H-pyrazol-3-yl)-2-(4-(2-(3,4-dimethoxyphenyl)-3-(2,2,2-trifluoroethyl)-1H-indol-5-yl)piperidin-1-yl)acetamide]	994 nM
COc1ccc(-c2[nH]c3ccc(C4CCN(C(=O)CN[C@H](C)C(C)C)CC4)cc3c2C2CCOCC2)cc1OC [Example 394, (R)-1-(4-(2-(3,4-dimethoxyphenyl)-3-(tetrahydro-2H-pyran-4-yl)-1H-indol-5-yl)piperidin-1-yl)-2-((3-methylbutan-2-yl)amino)ethan-1-one]	1390 nM
COc1ccc(-c2[nH]c3ccc(C4CCNCC4F)cc3c2C(C)C)cc1OC (single isomer, unassigned) [Example 322, 2-(3,4-dimethoxyphenyl)-5-(3-fluoropiperidin-4-yl)-3-isopropyl-1H-indole]	21 nM
COc1ccc(-c2[nH]c3ccc(C4CCN(C)CC4)cc3c2CC(F)(F)F)cc1OC [Example 355, 2-(3,4-dimethoxyphenyl)-5-(1-methylpiperidin-4-yl)-3-(2,2,2-trifluoroethyl)-1H-indole]	19 nM
COc1ccc(-c2[nH]c3ccc(C4CCN(C(=O)CCN(C)C)CC4)cc3c2CC(F)(F)F)cc1OC [Example 340, 1-(4-(2-(3,4-dimethoxyphenyl)-3-(2,2,2-trifluoroethyl)-1H-indol-5-yl)piperidin-1-yl)-3-(dimethylamino)propan-1-one]	22 nM
CCN(CCN(C)C)C(=O)CN1CCC(c2ccc3[nH]c(-c4ccc(OC)c(OC)c4)c(CC(F)(F)F)c3c2)CC1 [Example 372, 2-(4-(2-(3,4-dimethoxyphenyl)-3-(2,2,2-trifluoroethyl)-1H-indol-5-yl)piperidin-1-yl)-N-(2-(dimethylamino)ethyl)-N-ethylacetamide]	13 nM
COc1ccc(-c2[nH]c3ccc(C4CCN(CC(=O)N5CCC(N6CCN(C)CC6)CC5)CC4)cc3c2CC(F)(F)F)cc1OC [Example 363, 2-(4-(2-(3,4-dimethoxyphenyl)-3-(2,2,2-trifluoroethyl)-1H-indol-5-yl)piperidin-1-yl)-1-(4-(4-methylpiperazin-1-yl)piperidin-1-yl) ethan-1-one]	8 nM
